From patent US20090092642A1, “Skin and/or Hair Products, Containing Compounds With an Isoprenoid Structure” (BEIERSDORF AG, priority 2004, published 2009)

System: primary normal human melanocytes
Assay: Melanogenesis assay (14C-tyrosine incorporation) after 3 days of incubation with test substance
Format: cell-based
Conditions: 3 days incubation
Protocol: (§1) A melanogenesis assay was carried out after 3 days of incubation of primary normal human melanocytes with test substance compared to control. The figures listed in the table give the melanogenesis rates (measured as ^14C-tyrosine incorporation) based on the untreated control (=100%). It results from this that the melanogenesis, i.e., the process of melanine synthesis rises to 217%, 128% or 121%, when the melanocytes are cultivated in the presence of the (2E/Z,6E/Z)-3,7,11-trimethyldodeca-2,6,10-trienal (n=3).
as §1, with “135%” for “217%, 128%”, “113%” for “121%,”, “N-[(1E/Z,2E/Z)-3,7-dimethylocta-2,6-dien-1-ylidene]butane-1-amine (n=2).” for “(2E/Z,6E/Z)-3,7,11-trimethyldodeca-2,6,10-trienal (n=3).”
as §1, with “137%” for “217%, 128%”, “127%” for “121%,”, “(2E/Z)-3,7-dimethylocta-2,6-dienal (n=2-6).” for “(2E/Z,6E/Z)-3,7,11-trimethyldodeca-2,6,10-trienal (n=3).”
as §1, with “131%, 130%” for “217%, 128%”, “117%” for “121%,”, “(1E/Z,2E/Z)-3,7-dimethylocta-2,6-dienal oxime (n=2).” for “(2E/Z,6E/Z)-3,7,11-trimethyldodeca-2,6,10-trienal (n=3).”

In the case of `CC(C)=CCC/C(C)=C/C=N/O` [(1E/Z,2E/Z)-3,7-dimethylocta-2,6-dienal oxime], the “melanogenesis rate (measured as 14C-tyrosine incorporation) based on the untreated control (=100%), X transverse” value (shortened to “melanogenesis rate … (=100%), X transverse”) (0.01 μg/ml, n=2) is reported as 117%, the “melanogenesis rate … (=100%), X transverse” value (0.1 μg/ml, n=2) is reported as 130% and the “melanogenesis rate … (=100%), X transverse” value (1 μg/ml, n=2) is reported as 131%.
For `CC(C)=CCC/C(C)=C/C=O` [(2E/Z)-3,7-dimethylocta-2,6-dienal], the “melanogenesis rate … (=100%), X transverse” value (0.001 μg/ml, n=2-6) was 127% and the “melanogenesis rate … (=100%), X transverse” value (0.01 μg/ml, n=2-6) was 137%.
For `CC(C)=CCC/C(C)=C/CC/C(C)=C/C=O` [(2E/Z,6E/Z)-3,7,11-trimethyldodeca-2,6,10-trienal], the “melanogenesis rate … (=100%), X transverse” value (0.1 μg/ml (first column so headed), n=3) was 128%, the “melanogenesis rate … (=100%), X transverse” value (0.1 μg/ml (second column so headed), n=3) was 121% and the “melanogenesis rate … (=100%), X transverse” value (1 μg/ml, n=3) was 217%.
In the case of `CCCC/N=C/C=C(\C)CCC=C(C)C` [N-[(1E/Z,2E/Z)-3,7-dimethylocta-2,6-dien-1-ylidene]butane-1-amine], the “melanogenesis rate … (=100%), X transverse” value (0.1 μg/ml, n=2) is reported as 113% and the “melanogenesis rate … (=100%), X transverse” value (1 μg/ml, n=2) is reported as 135%.
